Results taken from the supplement of paper PMC10784567.
± gives the standard deviation of the averaged measurements.

What follows are test systems tested with C=C1C[C@H]2C=Nc3cc(OCCCCCOc4cc5c(cc4OC)C(=O)N4CC(=C)C[C@H]4C=N5)c(OC)cc3C(=O)N2C1 [SG2057] (assay: absolute IC50 (cell viability, CellTiter-Glo); higher = less potent). Details: treatment time: 3 days.
Experimental: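 Large cancer cell line panel screens in 384-well plates. Cells were treated for 3 days with a 9-point dose titration of the free PBD dimer SG2057; viability was read with CellTiter-Glo. Absolute IC50 came from a four-parameter Hill fit normalised to the median of vehicle (DMSO) wells. Several independent screens (projects) per cell line are averaged; values in µM, lowest-dose floor about 1.524e-5 µM.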

Row | Test System | absolute IC50
1 | NCI-H1975 | 2 nM
2 | NCI-H1975 (MB) | 0.206 nM
3 | NCI-H1993 | 0.564 nM
4 | NCI-H2009 | 1.1 ± 0.98 nM
5 | NCI-H2023 | 0.142 ± 0.27 nM
6 | NCI-H2052 | 0.717 nM
7 | NCI-H2073 | 28.9 nM
8 | NCI-H2106 | 1.36 ± 0.71 nM
9 | NCI-H2110 | 0.296 ± 0.18 nM
10 | NCI-H2122 | 2.98 ± 1.3 nM
11 | NCI-H2126 | 3.94 nM
12 | NCI-H2135 | 5.6 nM
13 | NCI-H2170 | 0.646 ± 0.011 nM
14 | NCI-H2171 | 0.742 ± 1.3 nM
15 | NCI-H2228 | 0.279 nM
16 | NCI-H2347 | 1.14 ± 2.7 nM
17 | NCI-H2373 | 0.217 ± 0.18 nM
18 | NCI-H2405 | 0.552 ± 0.38 nM
19 | NCI-H2444 | 5.49 nM
20 | NCI-H2452 | 2.95 ± 3 nM
21 | NCI-H2461 | 0.545 ± 0.89 nM
22 | NCI-H2595 | 2.2 ± 1.9 nM
23 | NCI-H2722 | 0.343 nM

Row | Test System | absolute IC50
24 | NCI-H2731 | 1.29 ± 1.9 nM
25 | NCI-H2803 | 3.86 nM
26 | NCI-H2804 | 0.718 ± 0.98 nM
27 | NCI-N87 | 0.403 ± 0.11 nM
28 | NCI-N417 | 0.737 nM
29 | NJG | 0.151 nM
30 | NTERA-2 | < 0.0152 nM
31 | NUGC-4 | 0.443 nM
32 | OAW28 | 5.25 nM
33 | OAW42 | 1.38 ± 1.6 nM
34 | OCI-AML5 | 0.0729 ± 0.11 nM
35 | OCI-LY-10 | < 0.0152 nM
36 | OCI-M1 | 0.227 ± 0.13 nM
37 | OCI-M2 | 0.275 ± 0.0079 nM
38 | OCUM-1 | 0.529 ± 0.32 nM
39 | OE19 | 2.23 nM
40 | OE21 | 0.259 nM
41 | OE33 | 0.0612 nM
42 | ONCO-DG-1 | 1.36 ± 2.2 nM
43 | ONS-76 | 0.487 nM
44 | OPM-2 | 1.63 ± 1.2 nM
45 | OUMS-23 | 1.71 ± 0.89 nM
46 | OV56 | 0.195 ± 0.3 nM

Row | Test System | absolute IC50
47 | OV-90 | 2.13 ± 1.3 nM
48 | OVCA 420 | 2.24 ± 2.3 nM
49 | OVCAR433 | 0.462 ± 0.47 nM
50 | OVCAR-4 | 1.33 ± 0.49 nM
51 | OVCAR-5 | 1.08 ± 0.3 nM
52 | OVTOKO | 0.557 ± 0.55 nM
53 | OvCA 429 | 0.139 ± 0.067 nM
54 | OvCA 432 | 1.08 ± 0.64 nM
55 | PA-1 | 0.0473 ± 0.056 nM
56 | PA-TU-8988S | 52.1 nM
57 | PAN 02 | 1.39 nM
58 | PAN 02 X1 | 0.839 nM
59 | PC-9 | 5.48 nM
60 | PE/CA-PJ15 | 0.216 nM
61 | PEO1 | 0.538 ± 0.19 nM
62 | PK-1 | 1.53 ± 1.3 nM
63 | PK-45H | 1.2 ± 0.94 nM
64 | PK-45P | 6.29 ± 1.9 nM
65 | PL45 | 0.402 nM
66 | PL-21 | 1.38 ± 1.2 nM
67 | PLC/PRF/5 | 8.3 nM
68 | PMF-ko14 | 2.86 ± 5.1 nM
69 | Panc 02.03 | 2.51 ± 3.8 nM

Row | Test System | absolute IC50
70 | Panc 05.04 | 1.68 ± 0.4 nM
71 | Panc 08.13 | 2.7 nM
72 | Panc 10.05 | 0.383 ± 0.11 nM
73 | Pfeiffer | 1.21 ± 2 nM
74 | QGP-1 | 5.47 ± 0.39 nM
75 | RC-K8 | 0.667 ± 1 nM
76 | RCM-1 | 3.33 ± 5.4 nM
77 | RERF-GC-1B | 1.07 ± 1 nM
78 | RERF-LC-KJ | 1.65 ± 2.5 nM
79 | RERF-LC-MS | 0.212 ± 0.15 nM
80 | RERF-LC-OK | 0.729 ± 1 nM
81 | RKO-E6 | 1.32 ± 2.1 nM
82 | RL95-2 | 1.9 nM
83 | RMUG-S | 1.92 ± 0.051 nM
84 | RPMI 2650 | 0.539 ± 0.27 nM
85 | RT4 | 2.35 nM
86 | RT-112 | 1.53 ± 2.8 nM
87 | RVH-421 | 0.569 nM
88 | Reh | 0.757 nM
89 | Renca | 10.3 ± 12 nM
90 | S-117 | 2.29 nM
